Reference: US20250205349A1, “ANTI-HUMAN TROP2 ANTIBODY-CAMPTOTHECIN DRUG CONJUGATE AND MEDICAL USE THEREOF” (SYSTIMMUNE, INC., priority 2021, published 2025)
pIC50: −log10 of the molar value. Read-outs that look alike come from different tables or passages of the source. Starred links: 1 amine or outer side, 2 acyl side, 3 side chain; linkers in the order of their positions; H or OH if unused. Non-standard residues stand in square brackets, D forms with d. Residues, ends and D or L forms follow the SMILES beside them. *: point of attachment. Exatecan = CC[C@@]1(O)C(=O)OCc2c1cc1n(c2=O)Cc2c-1nc1cc(F)c(C)c3c1c2[C@@H](N*)CC3; X1 = O=C(O)CNC[C@@H](C(=O)*)N1C(=O)C=CC1=O; X2 = C[C@H](OCN[*:1])C(=O)[*:2]

How the values were obtained:
N87 = experiment: In vitro efficacy of naked antibodies and Compound d3, d38, d39 and d44, MTS; type: cell-based; conditions: Homo sapiens, 1 uM starting concentration
Experimental: (§1) In a 96-well plate, cells were plated at an appropriate cell density. After 24 h, the drugs were added. After 24 h, the drugs were diluted with the test medium (1 uM starting concentration, 5-fold dilution, 9 concentrations, test medium was added in the tenth column as blank control). The diluted drugs were added to the corresponding cell wells and then shaken for 3 min with a microplate shaker (model: MX100-4A) at a shaking speed of 550 rpm/min. After shaking, the cells were incubated in a carbon dioxide incubator for […].
(§2) After 4 days, the MTS reagent was taken out, thawed at room temperature in the dark, and vortex mixed thoroughly. […] The cells were incubated for 2 h in the dark in an incubator. After the reaction, the 96-well plate was taken out for testing the OD490 nm absorption on an elisa plate, and the test data were recorded, organized, analyzed and stored.

Fadu = experiment: as above; type: cell-based; conditions: Homo sapiens, 1 uM starting concentration
Experimental: as §1, §2

SW620 = experiment: as above; type: cell-based; conditions: Homo sapiens, SW-620, 1 uM starting concentration
Experimental: as §1, §2

HCC827 = experiment: as above; type: cell-based; conditions: Homo sapiens, 1 uM starting concentration
Experimental: as §1, §2

SW620 + A431 = experiment: as above; type: cell-based; conditions: Homo sapiens, 1 uM starting concentration
Experimental: as §1, §2

[1] = Percentage of monomer of ADCs by SEC-HPLC; type: physicochemical
Experimental: • Chromatography column: Biocore SEC-300 5 μm, 4.6×300 mm; • Manufacturer: NanoChrom, Product code: B213-050030-04630S; • Mobile phase: 50 mM PB+300 mM NaCl+200 mM Arg+5% IPA, pH=6.5;
• Chromatography column: ACQUITY UPLC Protein SEC 4.6×150 mm […] • Manufacturer: waters Product code: 186005225 • Mobile phase: 50 mM PB+300 mM NaCl+200 mM Arg+5% IPA, pH=6.5

[2] = Experimental: The mixture of an ADC and IgG-depleted plasma were formulated with the final concentration of ADC being 0.6 mg/mL. The plasma mixture was incubated in a water bath box in a 37° C. incubator. The incubation time was set to 0 days, 3 days, and 7 days. At the same time, the unincubated plasma control was set. The incubated sample was purified and extracted and then tested for the DAR to reflect the stability of the ADC in plasma.
[3] = system: human breast cancer cell ZR-75-1; experiment: In vitro inhibitory effect of Compound 5A, MTS; type: cell-based
Experimental: (§3) The UV light of the biosafety cabinet was turned on 30 min in advance, and then the ventilation system was enabled for 3 min. The growth medium, the detection medium, D-PBS and trypsin were preheated in a 37° C. constant-temperature water bath, and then had surface disinfected with alcohol and then placed in the biosafety cabinet. The cells with a confluence rate of about 80% were placed in the biosafety cabinet, the old culture medium was removed, the cells were rinsed with D-PBS, and the D-PBS was then discarded. The cells were digested with trypsin for 2-3 min, then neutralized with the growth medium and centrifuged at 1200 rpm for 3 min, and the supernatant was removed. The cell solution was mixed with 4 mL of test medium, and 100 μL of cell solution was taken for counting (where 50 μL of cell solution was well mixed with 50 μL of Trypan Blue Stain and then counted). According to a pre-optimized cell plating density, the cells were plated in a 96-well plate at 80 ul/well. […] After 24 hours of plating, diluted antibodies were added with 20 uL per well and control was set. Only 20 μL of test medium was added to cells in column 11. Two duplicate wells were set at each concentration. The cells were then well mixed on the cell vortex shaker at 550 rpm for 3 min.
(§4) 240 μL of test medium was added to the subsequent columns 2 to 10. 60 μL of the well mixed test solution was taken from the first column and added to the second column, and the cell solution was mixed up and down with a pipette for 10 times, and then the pipette tip was discarded. The same operation was performed for other seven concentrations one by one.
(§5) After 4 days, the MTS reagent was taken out, thawed at room temperature in the dark, and vortex mixed thoroughly. In the biosafety cabinet, 20 μL of CellTiter One Solution Reagen MTS reagent was added per 100 μL cell culture volume along the side wall of each well, and the plate surface was gently tapped to well mix the MTS solution. The cells were incubated for 2 h in the dark in an incubator. After the reaction, the 96-well plate was taken out for testing the OD490 nm absorption on an elisa plate, and the test data were recorded, organized, analyzed and stored.

[4] = system: human non-small cell lung cancer cell HCC827; experiment: In vitro inhibitory effect of Compound 5A, MTS; type: cell-based
Experimental: as §3, §4, §5

[5] = system: human gastric cancer cell NCI-N87; experiment: In vitro inhibitory effect of Compound 5A, MTS; type: cell-based
Experimental: as §3, §4, §5

[6] = system: human epidermal cancer cell A431; experiment: In vitro inhibitory effect of Compound 5A, MTS; type: cell-based
Experimental: as §3, §4, §5

[7] = system: human leukemia cell JJN-3; experiment: In vitro inhibitory effect of Compound 5A, MTS; type: cell-based
Experimental: as §3, §4, §5

[8] = system: human orthotopic pancreatic adenocarcinoma cell BXPC-3; experiment: In vitro inhibitory effect of Compound 5A, MTS; type: cell-based
Experimental: as §3, §4, §5

[9] = system: human breast cancer cell SK-BR-3; experiment: In vitro inhibitory effect of Compound 5A, MTS; type: cell-based
Experimental: as §3, §4, §5

[10] = system: human multiple myeloma cell RPMI8226; experiment: In vitro inhibitory effect of Compound 5A, MTS; type: cell-based
Experimental: as §3, §4, §5

[11] = system: human breast cancer cell MDA-MB-361; experiment: In vitro inhibitory effect of Compound 5A, MTS; type: cell-based
Experimental: as §3, §4, §5

[12] = system: human plasma cell leukemia cell H929; experiment: In vitro inhibitory effect of Compound 5A, MTS; type: cell-based
Experimental: as §3, §4, §5

[13] = system: Human non-small cell lung adenocarcinoma cell H1975; experiment: In vitro inhibitory effect of Compound 5A, MTS; type: cell-based
Experimental: as §3, §4, §5

[14] = system: human epidermal cancer cell A431 + human colon cancer cell SW620; experiment: In vitro inhibitory effect of Compound 5A, MTS; type: cell-based
Experimental: as §3, §4, §5

[15] = humans; cited from earlier work
[16] = in vivo; cited from earlier work
[17] = mice; cited from earlier work
[18] = target: T1, recombinant TROP2-His*6 antigen (Homo sapiens, UniProt P09758); experiment: Double-antigen sandwich ELISA, relative affinity to TROP2; type: binding; conditions: OD450 nm, EC50 compared
T1 construct: His*6
T1 sequence (P09758 27-323): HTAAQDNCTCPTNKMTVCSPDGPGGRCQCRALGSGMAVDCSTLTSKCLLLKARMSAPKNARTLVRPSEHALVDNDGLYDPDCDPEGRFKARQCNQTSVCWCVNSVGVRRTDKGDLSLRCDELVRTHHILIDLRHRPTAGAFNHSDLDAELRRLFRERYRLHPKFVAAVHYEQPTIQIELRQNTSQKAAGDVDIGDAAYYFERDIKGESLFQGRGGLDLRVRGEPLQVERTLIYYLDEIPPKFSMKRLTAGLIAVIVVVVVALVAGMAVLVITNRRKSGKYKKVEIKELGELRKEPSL
Experimental: The recombinant TROP2-His*6 antigen was coated on the plate and then blocked with 1% bovine serum albumin; hu4D3 and the corresponding ADC and TINA1 and the corresponding ADC were diluted respectively, and then serially diluted 3 folds at a starting concentration of 2000 ng/mL respectively, for a total of 11 concentrations. After the sample was incubated on the coated elisa plate for a period of time, the secondary antibody labeled by goat anti-human Fc-HRP was added for incubation. Finally, TMB color development was performed and terminated by sulfuric acid solution, and the absorption value at 450 nm was detected on an elisa plate. The results are plotted on concentration at OD450 nm.

[19] = system: human tumor cell line (BxPC-3); experiment: In vitro drug efficacy of antibodies and ADCs, MTS cell viability; type: cell-based; conditions: BxPC-3, 5 days
Experimental: In the present invention, a human tumor cell line (BxPC-3) was used as an experimental model to evaluate the in vitro efficacy of ADCs. A certain number of tumor cells were inoculated into a 96-well plate, and gradient dilutions of the test antibody and the corresponding ADC were added to the cells, the cells were treated for 5 days, cell viability was detected by using MTS, and IC50 was calculated to evaluate the in vitro inhibitory effect of the test antibody and ADCs on the tumor cell line. The cells were treated for 5 days with the antibody drugs having initial concentration of 500 nM, diluted 7 folds, with a total of 8 concentration points. Finally, the cell survival was calculated as: survival rate=(experimental group-blank group)/(control group-blank group)×100%. Then, by using Graph Pad Prism, the curve was fitted and the half inhibitory concentration (IC50) was calculated.

CC[C@@]1(O)C(=O)OCc2c1cc1n(c2=O)Cc2c-1nc1cc(F)c(C)c3c1c2[C@H](NC(=O)[C@@H](O)C1CC1)CC3 [d39]
IC50 (N87): 0.466 nM | IC50 (Fadu): 0.11 nM | IC50 (SW620): < 0.005 nM | IC50 (HCC827): 0.092 nM | IC50 (SW620 + A431): 0.468 nM

DS1062a (DAR = 4)
Aggregate % [1]: 3.431% | Degradation % [1]: 0.108% | Monomer % [1]: 96.461% | DAR Incubated in plasma for 0 days ([2]; ADC 0.6 mg/mL in IgG-depleted plasma, 37° C., 0 days): 4.21 | DAR Incubated in plasma for 3 days ([2]; ADC 0.6 mg/mL in IgG-depleted plasma, 37° C., 3 days): 3.75 | DAR Incubated in plasma for 7 days ([2]; ADC 0.6 mg/mL in IgG-depleted plasma, 37° C., 7 days): 3.30 | DAR Unincubated ([2]; unincubated control): 4.13

CC[C@@]1(O)C(=O)OCc2c1cc1n(c2=O)Cc2c-1nc1cc(F)c(C)c3c1c2[C@@H](NC(=O)[C@H](C)OCNC(=O)CNC(=O)[C@H](Cc1ccccc1)NC(=O)CNC(=O)CNC(=O)[C@H](CNCC(=O)O)N1C(=O)C=CC1=O)CC3 [Compound 5A] (X1-GGFG[X2]-Exatecan)
pIC50 ([3]; Homo sapiens, 96 h, ZR-75-1, 4 days, MTS): 6.25 | Efficacy % ([3]; ZR-75-1): 54.79% | Efficacy % ([4]; HCC827): 80.57% | pIC50 ([4]; Homo sapiens, 96 h, HCC827, 4 days, MTS): 6.18 | pIC50 ([5]; Homo sapiens, 96 h, NCI-N87, 4 days, MTS): 5.99 | Efficacy % ([5]; NCI-N87): 63.93% | Efficacy % ([6]; A431): 84.97% | pIC50 ([6]; Homo sapiens, A-431, 96 h, A431, 4 days, MTS): 6.36 | pIC50 ([7]; Homo sapiens, 96 h, JJN-3, 4 days, MTS): 7.44 | Efficacy % ([7]; JJN-3): 80.59% | Efficacy % ([8]; BxPC-3): 64.4% | pIC50 ([8]; Homo sapiens, 96 h, BxPC-3, 4 days, MTS): 6.49 | pIC50 ([9]; Homo sapiens, 96 h, SK-BR-3, 4 days, MTS): 6.14 | Efficacy % ([9]; SK-BR-3): 70.9% | pIC50 ([10]; Homo sapiens, RPMI-8226, 96 h, RPMI8226, 4 days, MTS): 6.83 | Efficacy % ([10]; RPMI8226): 93.61% | pIC50 ([11]; Homo sapiens, 96 h, MDA-MB-361, 4 days, MTS): 6.24 | Efficacy % ([11]; MDA-MB-361): 62.34% | Efficacy % ([12]; H929): 99.03% | pIC50 ([12]; Homo sapiens, NCI-H929, 96 h, H929, 4 days, MTS): 7.62 | Efficacy % ([13]; H1975): 76.78% | pIC50 ([13]; Homo sapiens, NCI-H1975, 96 h, H1975, 4 days, MTS): 6.01 | Efficacy % ([14]; A431 + SW620): 68.26% | pIC50 ([14]; Homo sapiens, 96 h, A431 + SW620, 4 days, MTS): 6.22

CC[C@@]1(O)C(=O)OCc2c1cc1n(c2=O)Cc2c-1nc1cc(F)c(C)c3c1c2[C@@H](NC(=O)[C@H](C)O)CC3 [d3]
IC50 (N87): 1.61 nM | IC50 (Fadu): 0.531 nM | IC50 (SW620): 0.543 nM | IC50 (HCC827): 0.778 nM | IC50 (SW620 + A431): 2.81 nM

IMMU-132
elimination half-life [15]: about 11 h | mean residence time [16]: about 15.4 h | elimination half-life [17]: about 11 h

CC[C@@]1(O)C(=O)OCc2c1cc1n(c2=O)Cc2c-1nc1cc(F)c(C)c3c1c2[C@H](NC(=O)C1(CO)CCC1)CC3 [d44]
IC50 (N87): 0.197 nM | IC50 (Fadu): 0.029 nM | IC50 (SW620): 0.014 nM | IC50 (HCC827): 0.038 nM | IC50 (SW620 + A431): 0.182 nM

DS1062a [reference compound]
affinity for antigen TROP2 compared with the corresponding antibody [18]: maintains the same affinity | pIC50 [19]: 6.51 | plasma stability (in words) ([2]; change in DAR during incubation in plasma): poor plasma stability
